# Where two headings read alike, the source gives them in different places.
# Key:
# [1] = tested on: human lymphocyte CEM; assay: Cytostatic activity assay, CEM cells; type: cell-based; settings: read-out: IC50 CEM (compound concentration required to inhibit tumor cell proliferation by 50%)
# [2] = tested on: HIV-1 (IIIB); assay: Inhibition of HIV-1 (IIIB)-induced cytopathicity (giant cell formation) in CEM cells; type: cell-based
# Method: (§1) A variety of glycopeptide antibiotic derivatives of vancomycin, eremomycin and teicoplanin including their aglycon derivatives were evaluated for their inhibitory activity against HIV-1 (IIIB) and HIV-2(ROD) in CEM cell cultures.
# [3] = tested on: HIV-2(ROD); assay: Inhibition of HIV-2 (ROD)-induced cytopathicity (giant cell formation) in CEM cells; type: cell-based; settings: read-out: EC50 HIV-2 (concentration required to inhibit HIV-induced giant cell formation by 50%); HIV-2, CEM cell cultures
# Method: as §1
# [4] = tested on: HIV; assay: Selection of resistant HIV strains in cell culture; type: cell-based; settings: ≧9 weeks of attempts in cell culture
# [5] = tested on: human lymphocyte Molt4/clone 8; assay: Cytostatic activity assay, Molt4/clone 8 cells; type: cell-based; settings: read-out: IC50 Molt4/C8 (compound concentration required to inhibit tumor cell proliferation by 50%)
# [6] = tested on: murine leukemia L1210; assay: Cytostatic activity assay, L1210 cells; type: cell-based; settings: read-out: IC50 L1210 (compound concentration required to inhibit tumor cell proliferation by 50%)
# [7] = in vitro; settings: monkey (simian)
# [8] = tested on: SARS virus (strain Frankfurt-1); assay: microbe, parasite or virus in culture; type: cell-based, human corona (SARS) virus; settings: read-out: EC50 SARS virus
# [9] = tested on: FCV; assay: Feline corona virus assay in Feline Crandel kidney cells (MTS); type: cell-based; settings: read-out: EC50 FCV
# Method: Feline Crandel kidney cells were seeded in 96-well microtiter plates at 24,000 cells/well. Then, 24 hrs later, an appropriate inoculum of FCV is added together with 5-fold dilutions of the test compounds. After 4 days, a MTS/PMS solution was added to each well. Following a 90 min incubation period at 37° C., the optical density of the wells was read at 498 nm in a microplate reader.
# [10] = in vitro; settings: cat
# [11] = tested on: mutant HIV-1 strain Tyr-181-Cys; assay: Anti-HIV-1 activity against mutant HIV-1 strain Tyr-181-Cys in CEM cultures; type: cell-based
# [12] = tested on: Vero cells; settings: read-out: CC50 Vero
# [13] = tested on: HIV-1 (MN); assay: Inhibition of HIV-1 (MN)-induced cytopathicity in CEM/0 cells; type: cell-based
# [14] = tested on: mutant HIV-1 strain Tyr-188-His; assay: Anti-HIV-1 activity against mutant HIV-1 strain Tyr-188-His in CEM cultures; type: cell-based
# Method: (§2) Inhibition of HIV-1 (IIIB, HE, HN) and HIV-2(ROD, EHO, RF)-induced cytopathicity in CEM or C8166 or Molt4/C8 cells was measured in microtiter 96-well plates containing ˜3×10^5 CEM cells/ml, infected with 100 CCID50 of HIV per ml and containing appropriate dilutions of the test compounds. After 4 to 5 days of incubation at 37° C. in a CO2-controlled humidified atmosphere, CEM, C8166 or Molt4/C8 giant (syncytium) cell formation was examined microscopically.
# [15] = tested on: mutant HIV-1 strain Lys-103-Asn; assay: Anti-HIV-1 activity against mutant HIV-1 strain Lys-103-Asn in CEM cultures; type: cell-based
# [16] = tested on: FCK cells; settings: read-out: CC50 FCK; FCK cells
# [17] = tested on: HIV-1 (HE); assay: Inhibition of HIV-1 (HE)-induced cytopathicity in CEM/0 cells; type: cell-based
# [18] = tested on: mutant HIV-1 strain Leu-100-Ile; assay: Anti-HIV-1 activity against mutant HIV-1 strain Leu-100-Ile in CEM cultures; type: cell-based
# [19] = tested on: HIV-2 (RF); settings: read-out: EC50 CEM/0 HIV-2 (RF); CEM/0 cells
# Method: as §2
# [20] = tested on: HIV-2 (EHO); settings: read-out: EC50 CEM/0 HIV-2 (EHO); CEM/0 cells
# Method: as §2
# [21] = tested on: HIV-1(HE); assay: Inhibition of HIV-1 (HE)-induced cytopathicity in MOLT4/C8 cells; type: cell-based
# [22] = tested on: HIV-1 (IIIB); assay: Inhibition of HIV-1 (IIIB)-induced cytopathicity in C8166 cells; type: cell-based
# [23] = tested on: VZV (wild-type strains); assay: Anti-VZV assay (wild-type strains): virus-induced cytopathicity in HEL cell cultures; type: cell-based, varicella-zoster virus; settings: HEL cell cultures
# [24] = tested on: HEL cells; settings: read-out: CC50 (HEL), HEL cells
# [25] = tested on: CMV; assay: Anti-CMV assay: virus-induced cytopathicity in HEL cell cultures
# [26] = tested on: HEL cells
# [27] = read-out: EC50 HIV-1 (concentration required to inhibit HIV-induced giant cell formation by 50%), HIV-1, CEM cell cultures
# [28] = Severe acute respiratory syndrome coronavirus, Vero
# [29] = CEM cultures, wild type in mutant panel, read-out: EC50 HIV-1 IIIB
# [30] = CEM/0 cells, read-out: EC50 CEM/0 HIV-1 (IIIB)
SMILES,IC50 [1],"EC50 [2, 27]",EC50 [3],selection of resistant virus strains [4],IC50 [5],IC50 [6],EC50 [11],CC50 [12],EC50 [13],EC50 [14],"EC50 [2, 29]","EC50 [2, 30]",EC50 ([8]; SARS virus in Vero cells),CC50 [16],EC50 [17],EC50 [18],EC50 [19],EC50 [20],EC50 [21],EC50 ([9]; FCV in FCK cells),other results
CCCCCCCCCCNCc1c(O)cc2c(c1O)-c1cc(ccc1O)C1NC(=O)C3NC(=O)C4NC(=O)C(Cc5ccc(c(Cl)c5)Oc5cc3cc(c5O)Oc3ccc(cc3Cl)C(O)C(NC1=O)C(=O)NC2C(=O)NCCCN(C)C)NC(=O)C(N)c1ccc(O)c(c1)Oc1cc(O)cc4c1 (stereo not drawn) [Compound 15],> 100 µM,1.4 ± 0.6 µM,6 ± 3.9 µM,failed,> 100 µM,48 ± 8 µM,–,–,–,–,–,–,–,–,–,–,–,–,–,–,–
NC1C(=O)NC2Cc3ccc(c(Cl)c3)Oc3cc4cc(c3O)Oc3ccc(cc3Cl)C(O)C(C(=O)O)NC(=O)C(c3ccc(O)c(-c5c(O)cc(O)cc5C(N)C(=O)O)c3)NC(=O)C4NC(=O)C(NC2=O)c2cc(O)cc(c2)Oc2cc1ccc2O (stereo not drawn) [Compound 172],–,–,–,–,–,–,–,–,–,–,–,–,–,–,–,–,–,–,–,–,"CC50 [7]: > 100 µM; EC50 [8, 28]: 38 µM; EC50 ([9]; Felis catus): ≥ 100 µM; CC50 [10]: > 100 µM"
CN(C)CCCNC(=O)C1NC(=O)C2NC(=O)C(NC(=O)C3NC(=O)C4NC(=O)C(Cc5ccc(c(Cl)c5)Oc5cc3cc(c5O)Oc3ccc(cc3Cl)C2O)NC(=O)C(N)c2ccc(O)c(c2)Oc2cc(O)cc4c2)c2ccc(O)c(c2)-c2c1cc(O)c(CNC1C3CC4CC(C3)CC1C4)c2O (stereo not drawn) [Compound 19],> 500 µM,2.5 ± 0.7 µM,8 ± 2.8 µM,failed,> 500 µM,> 500 µM,7.5 ± 3.5 µM,> 100 µM,13 ± 2.1 µM,11 ± 1.4 µM,6 ± 1.4 µM,6 ± 1.4 µM,23 µM,> 50 µM,12 µM,11.5 ± 2.1 µM,9.5 ± 3.5 µM,15 µM,9 ± 1.4 µM,18 µM,EC50 [15]: 8.5 ± 2.1 µM; EC50 [22]: 9.5 ± 3.5 µM
CCCCc1ccc(CN2CCN(Cc3c(O)cc4c(c3O)-c3cc(ccc3O)C3NC(=O)C5NC(=O)C6NC(=O)C(Cc7ccc(c(Cl)c7)Oc7cc5cc(c7O)Oc5ccc(cc5Cl)C(O)C(NC3=O)C(=O)NC4C(=O)NC)NC(=O)C(N)c3ccc(O)c(c3)Oc3cc(O)cc6c3)CC2)cc1 (stereo not drawn) [Compound 31],> 500 µM,1.7 ± 0.42 µM,3 ± 1.4 µM,–,> 500 µM,61 ± 10 µM,8.5 ± 2.1 µM,> 100 µM,6.5 ± 0.7 µM,6 ± 1.4 µM,2.8 ± 0.4 µM,2.8 ± 0.4 µM,24 µM,≥ 20 µM,9.5 ± 3.5 µM,5.3 ± 2.5 µM,3.7 ± 1.77 µM,6.8 ± 0.35 µM,3.7 ± 0.35 µM,> 100 µM,"EC50 ([23]; VZV strain OKA, read-out: EC50 VZV (OKA)): 0.75 µM; EC50 ([23]; VZV strain YS, read-out: EC50 VZV (YS)): 0.85 µM; EC50 [15]: 6 ± 1.4 µM; CC50 ([24]; anti-CMV table): > 200 µM; CC50 ([24]; anti-VZV table): > 200 µM; EC50 [22]: 6.6 ± 3.06 µM; anti-CMV activity [25]: anti-CMV activity; EC50 ([25]; read-out: EC50 CMV AD-169, CMV strain AD-169, HEL cell cultures): ≥ 20 µM; EC50 ([25]; read-out: EC50 CMV Davis, CMV strain Davis, HEL cell cultures): 10 µM; MTC (HEL) ([26]; anti-CMV table): 20 to 50 µM; MTC (HEL) ([26]; anti-VZV table): 20 to 50 µM"
"Cc1ccnc2c1NC(=O)c1cccnc1N2C1CC1 [nevirapine, reference compound]",–,–,–,easily resulted in the emergence,–,–,–,–,–,–,–,–,–,–,–,–,–,–,–,–,–
NC1Cc2ccc(c(Cl)c2)Oc2cc3cc(c2O)Oc2ccc(cc2Cl)C(O)C2NC(=O)C(NC(=O)C3NC(=O)C(c3cc(O)cc(Oc4cc(C5NC(=S)N(c6ccccc6)C5=O)ccc4O)c3)NC1=O)c1ccc(O)c(c1)-c1c(O)cc(O)cc1C(C(=O)O)NC2=O (stereo not drawn) [Compound 171],–,–,–,–,–,–,–,–,–,–,–,–,–,–,–,–,–,–,–,–,"CC50 [7]: > 100 µM; EC50 [8, 28]: 29 µM; CC50 [10]: > 100 µM"
CCCCc1ccc(CN2CCN(Cc3c(O)cc4c(c3O)-c3cc(ccc3O)C3NC(=O)C5NC(=O)C6NC(=O)C(Cc7ccc(c(Cl)c7)Oc7cc5cc(c7O)Oc5ccc(cc5Cl)C(O)C(NC3=O)C(=O)NC4C(=O)NCCCN(C)C)NC(=O)C(N)c3ccc(O)c(c3)Oc3cc(O)cc6c3)CC2)cc1 (stereo not drawn) [Compound 30],> 500 µM,3 µM,5 ± 1.4 µM,–,108 ± 79 µM,29 ± 7 µM,–,> 100 µM,7 µM,7.5 ± 0.7 µM,2.8 ± 0.4 µM,2.8 ± 0.4 µM,33 µM,≥ 50 µM,5.5 ± 0.7 µM,6 ± 1.4 µM,3.7 ± 1.25 µM,11 ± 1.4 µM,4.5 ± 0.7 µM,9.2 µM,EC50 [22]: ≥ 5 µM
CNC(=O)C1NC(=O)C2NC(=O)C(NC(=O)C3NC(=O)C4NC(=O)C(Cc5ccc(c(Cl)c5)Oc5cc3cc(c5O)Oc3ccc(cc3Cl)C2O)NC(=O)C(N)c2ccc(O)c(c2)Oc2cc(O)cc4c2)c2ccc(O)c(c2)-c2c1cc(O)c(CNC1C3CC4CC(C3)CC1C4)c2O (stereo not drawn) [Compound 51],> 250 µM,5 ± 1.4 µM,17 ± 3.5 µM,–,> 250 µM,212 ± 54 µM,9.5 ± 2.1 µM,> 100 µM,25 ± 7.1 µM,11 ± 6.4 µM,5 ± 1.4 µM,5 ± 1.4 µM,39 µM,≥ 100 µM,40 µM,24 ± 6.3 µM,9 ± 4.2 µM,13 ± 6.6 µM,25 ± 5 µM,15 µM,EC50 [15]: 12 µM

# — US20050250677A1, “Glycopeptide antibiotic derivatives” (priority 2002, published 2005)
